Literature values, collected in patent US20240226204A9 (priority 2021, published 2024).

Test system: COVID-19
Conditions: human, in vivo

| Molecule | mortality | efficacy / antiviral effect in clinical use against COVID-19 |
| --- | --- | --- |
| C[C@@H]1C[C@H]2[C@@H]3CCC4=CC(=O)C=C[C@]4(C)[C@@]3(F)[C@@H](O)C[C@]2(C)[C@@]1(O)C(=O)CO [dexamethasone] | increase in mortality |  |
| CCN(CCO)CCCC(C)Nc1ccnc2cc(Cl)ccc12 (stereo not drawn) [hydroxychloroquine] |  | lack of efficacy |
| lopinavir-ritonavir |  | lack of efficacy |
